Columns and labels:
[1] = target: T1, recombinant guanylate cyclase reporter cell line (Rattus norvegicus, UniProt P19686+P20595); assay: Action on recombinant guanylate cyclase reporter cell line; format: cell-based
T1 construct: expressed in transfected cells
T1 sequence (P20595 1-619): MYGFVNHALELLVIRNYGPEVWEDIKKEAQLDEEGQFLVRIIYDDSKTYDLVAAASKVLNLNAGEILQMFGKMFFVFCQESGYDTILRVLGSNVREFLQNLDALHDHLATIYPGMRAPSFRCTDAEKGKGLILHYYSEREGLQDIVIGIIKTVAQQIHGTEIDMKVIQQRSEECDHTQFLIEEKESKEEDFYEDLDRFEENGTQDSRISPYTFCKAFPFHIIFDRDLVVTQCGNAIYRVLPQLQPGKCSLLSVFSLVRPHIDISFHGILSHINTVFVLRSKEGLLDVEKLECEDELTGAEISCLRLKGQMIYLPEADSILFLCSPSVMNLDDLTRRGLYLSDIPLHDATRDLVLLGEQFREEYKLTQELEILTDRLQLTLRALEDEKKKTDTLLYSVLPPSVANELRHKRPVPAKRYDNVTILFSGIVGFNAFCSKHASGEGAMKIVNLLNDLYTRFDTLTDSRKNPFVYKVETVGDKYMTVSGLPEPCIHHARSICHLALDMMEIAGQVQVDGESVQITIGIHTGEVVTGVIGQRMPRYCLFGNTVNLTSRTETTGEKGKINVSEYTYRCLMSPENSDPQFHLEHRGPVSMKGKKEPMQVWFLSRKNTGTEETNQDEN
T1 sequence (P19686 1-690): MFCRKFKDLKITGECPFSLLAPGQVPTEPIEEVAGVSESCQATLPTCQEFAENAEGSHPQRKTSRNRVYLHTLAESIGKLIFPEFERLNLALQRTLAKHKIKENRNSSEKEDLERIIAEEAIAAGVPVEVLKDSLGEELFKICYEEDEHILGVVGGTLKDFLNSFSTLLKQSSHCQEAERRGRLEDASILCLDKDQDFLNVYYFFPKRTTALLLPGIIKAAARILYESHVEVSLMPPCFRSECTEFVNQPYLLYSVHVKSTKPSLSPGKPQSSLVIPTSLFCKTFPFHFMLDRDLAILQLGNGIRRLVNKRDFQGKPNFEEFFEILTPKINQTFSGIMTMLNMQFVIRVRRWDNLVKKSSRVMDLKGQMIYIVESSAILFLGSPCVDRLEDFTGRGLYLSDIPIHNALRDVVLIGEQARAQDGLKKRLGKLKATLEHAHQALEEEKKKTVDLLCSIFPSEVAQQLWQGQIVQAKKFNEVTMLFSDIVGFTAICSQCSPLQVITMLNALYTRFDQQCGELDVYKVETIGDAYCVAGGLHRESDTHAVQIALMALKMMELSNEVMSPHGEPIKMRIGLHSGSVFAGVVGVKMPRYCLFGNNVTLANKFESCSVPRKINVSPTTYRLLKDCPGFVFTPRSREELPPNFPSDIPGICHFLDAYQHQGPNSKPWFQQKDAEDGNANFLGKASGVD
Experimental: B-2. Action on Recombinant Guanylate Cyclase Reporter Cell Line
The cellular action of the compounds according to the invention is determined on a recombinant guanylate cyclase reporter cell line, as described in F. Wunder et al., Anal. Biochem. 339, 104-112 (2005).

[2] = target: T2, human phosphodiesterase 5 (PDE-5) (Homo sapiens, UniProt O76074); assay: Inhibition of human phosphodiesterase 5 (PDE-5), SPA assay; format: biochemical; details: PDE-5 preparation from human platelets, [8-3H]cGMP substrate
T2 construct: PDE-5 preparations are obtained from human platelets by lysis; from tissue; host or cells: human platelets
Experimental: B-6. Inhibition of Human Phosphodiesterase 5 (PDE-5)
PDE-5 preparations are obtained from human platelets by lysis (Microfluidizer®, 800 bar, 3 passages), followed by centrifugation (75000 g, 60 min, 4° C.) and ion-exchange chromatography of the supernatant on a Mono Q 10/10 column (linear sodium chloride gradient, elution with a 0.2-0.3M solution of sodium chloride in buffer (20 mM Hepes pH 7.2, 2 mM magnesium chloride). Fractions that have PDE-5 activity are combined (PDE-5 preparation) and stored at −80° C.
For determining their in-vitro action on human PDE-5, the test substances are dissolved in 100% DMSO and serial dilutions are prepared. Typically, dilution series (1:3) from 200 μM to 0.091 μM are prepared (resultant final concentrations in the test: 4 μM to 0.0018 μM). In each case 2 μL of the diluted solutions of the substance are put in the wells of microtitre plates (Isoplate-96/200W; Perkin-Elmer). Then 50 μL of a dilution of the PDE-5 preparation described above is added. The dilution of the PDE-5 preparation is selected so that during subsequent incubation less than 70% of the substrate is reacted (typical dilution: 1:100; dilution buffer: 50 mM Tris/hydrochloric acid pH 7.5, 8.3 mM magnesium chloride, 1.7 mM EDTA, 0.2% BSA). The substrate [8-^3H]cyclic guanosine-3′,5′-monophosphate (1 μCi/μL; Perkin-Elmer) is diluted 1:2000 with assay buffer (50 mM Tris/hydrochloric acid pH 7.5, 8.3 mM magnesium chloride, 1.7 mM EDTA) to a concentration of 0.0005 μCi/μL. The enzyme reaction is finally started by adding 50 μL (0.025 μCi) of the diluted substrate. The test preparations are incubated for 60 min at room temperature and the reaction is stopped by adding 25 μL of a suspension of 18 mg/mL of Yttrium Scintillation Proximity Beads in water (phosphodiesterase beads for SPA assays, RPNQ 0150, Perkin-Elmer). The microtitre plates are sealed with film and left to stand for 60 min at room temperature. Then the plates are measured for 30 s per well in a Microbeta scintillation counter (Perkin-Elmer). IC50 values are determined on the basis of the graphs plotted of the substance concentration versus the percentage PDE-5 inhibition.

Row | MEC (minimal effective concentration) [1] [μm] | IC50 [2] [nM] | Compound
1 | 0.1 | 480 | Cc1nccn1-c1nc(-c2nn(Cc3ccccc3F)c3ncccc23)nc2c1C(C)(C)C(=O)N2 [Example 62, 2-[1-(2-fluorobenzyl)-1H-pyrazolo[3,4-b]pyridin-3-yl]-5,5-dimethyl-4-(2-methyl-1H-imidazol-1-yl)-5,7-dihydro-6H-pyrrolo[2,3-d]pyrimidin-6-one]
2 | 0.01 | 170 | Cc1ccc(CNc2nc(-c3nn(Cc4ccccc4F)c4ncccc34)nc3c2C(C)(C)C(=O)N3)o1 [Example 41, 2-[1-(2-fluorobenzyl)-1H-pyrazolo[3,4-b]pyridin-3-yl]-5,5-dimethyl-4-{[(5-methylfuran-2-yl)methyl]amino}-5,7-dihydro-6H-pyrrolo[2,3-d]pyrimidin-6-one]
3 | 0.1 | 16 | CC1(C)C(=O)Nc2nc(-c3nn(Cc4ccccc4F)c4ncccc34)nc(NC[C@H]3CNC(=O)C3)c21 [Example 66, 2-[1-(2-fluorobenzyl)-1H-pyrazolo[3,4-b]pyridin-3-yl]-5,5-dimethyl-4-{[(5-oxopyrrolidin-3-yl)methyl]amino}-5,7-dihydro-6H-pyrrolo[2,3-d]pyrimidin-6-one]
4 | 0.03 | 410 | CC1(C)C(=O)Nc2nc(-c3nn(Cc4ccccc4F)c4ncccc34)nc(NCC3CC3)c21 [Example 43, 4-[(cyclopropylmethyl)amino]-2-[1-(2-fluorobenzyl)-1H-pyrazolo[3,4-b]pyridin-3-yl]-5,5-dimethyl-5,7-dihydro-6H-pyrrolo[2,3-d]pyrimidin-6-one]
5 | 0.01 | 110 | COCCCNc1nc(-c2nn(Cc3ccccc3F)c3ncccc23)nc2c1C(C)(C)C(=O)N2 [Example 74, 2-[1-(2-fluorobenzyl)-1H-pyrazolo[3,4-b]pyridin-3-yl]-4-[(3-methoxypropyl)amino]-5,5-dimethyl-5,7-dihydro-6H-pyrrolo[2,3-d]pyrimidin-6-one]
6 | 0.1 | 120 | CC1(C)C(=O)Nc2nc(-c3nn(Cc4ccccc4F)c4ncccc34)nc(NCc3ccccc3F)c21 [Example 42, 4-[(2-fluorobenzyl)amino]-2-[1-(2-fluorobenzyl)-1H-pyrazolo[3,4-b]pyridin-3-yl]-5,5-dimethyl-5,7-dihydro-6H-pyrrolo[2,3-d]pyrimidin-6-one]
7 | 0.03 | 230 | CC(C)CCNc1nc(-c2nn(Cc3ccccc3F)c3ncccc23)nc2c1C(C)(C)C(=O)N2 [Example 63, 2-[1-(2-fluorobenzyl)-1H-pyrazolo[3,4-b]pyridin-3-yl]-5,5-dimethyl-4-[(3-methylbutyl)amino]-5,7-dihydro-6H-pyrrolo[2,3-d]pyrimidin-6-one]
8 | 0.3 | 46 | CC1(C)C(=O)Nc2nc(-c3nn(Cc4ccccc4F)c4ncccc34)nc(Nc3ccncc3)c21 [Example 69, 2-[1-(2-fluorobenzyl)-1H-pyrazolo[3,4-b]pyridin-3-yl]-5,5-dimethyl-4-(pyridin-4-ylamino)-5,7-dihydro-6H-pyrrolo[2,3-d]pyrimidin-6-one]
9 | 0.3 | 430 | Cn1ccnc1CNc1nc(-c2nn(Cc3ccccc3F)c3ncccc23)nc2c1C(C)(C)C(=O)N2 [Example 60, 2-[1-(2-fluorobenzyl)-1H-pyrazolo[3,4-b]pyridin-3-yl]-5,5-dimethyl-4-{[(1-methyl-1H-imidazol-2-yl)methyl]amino}-5,7-dihydro-6H-pyrrolo[2,3-d]pyrimidin-6-one]
10 | 0.03 | 5 | CC1(C)C(=O)Nc2nc(-c3nn(Cc4ccccc4F)c4ncccc34)nc(N[C@@H]3CCCOC3)c21 [Example 51, 2-[1-(2-fluorobenzyl)-1H-pyrazolo[3,4-b]pyridin-3-yl]-5,5-dimethyl-4-(tetrahydro-2H-pyran-3-ylamino)-5,7-dihydro-6H-pyrrolo[2,3-d]pyrimidin-6-one]
11 | 0.3 | 16 | CC1(C)C(=O)Nc2nc(-c3nn(Cc4ccccc4F)c4ncccc34)nc(NCCC(N)=O)c21 [Example 73, N^3-{2-[1-(2-fluorobenzyl)-1H-pyrazolo[3,4-b]pyridin-3-yl]-5,5-dimethyl-6-oxo-6,7-dihydro-5H-pyrrolo[2,3-d]pyrimidin-4-yl}-beta-alaninamide]
12 | 0.1 | 35 | CC1(C)C(=O)Nc2nc(-c3nn(Cc4ccccc4F)c4ncccc34)nc(N3C[C@@H]4C[C@H]3CO4)c21 [Example 46, 2-[1-(2-fluorobenzyl)-1H-pyrazolo[3,4-b]pyridin-3-yl]-5,5-dimethyl-4-[(1S,4S)-2-oxa-5-azabicyclo[2.2.1]hept-5-yl]-5,7-dihydro-6H-pyrrolo[2,3-d]pyrimidin-6-one]
13 | 0.1 | 430 | CC1(C)C(=O)Nc2nc(-c3nn(Cc4ccccc4F)c4ncccc34)nc(Nc3cccnc3)c21 [Example 65, 2-[1-(2-fluorobenzyl)-1H-pyrazolo[3,4-b]pyridin-3-yl]-5,5-dimethyl-4-(pyridin-3-ylamino)-5,7-dihydro-6H-pyrrolo[2,3-d]pyrimidin-6-one]
14 | 0.01 | 330 | CC1(C)C(=O)Nc2nc(-c3nn(Cc4ccccc4F)c4ncccc34)nc(NC[C@H]3CCCO3)c21 [Example 86, 2-[1-(2-fluorobenzyl)-1H-pyrazolo[3,4-b]pyridin-3-yl]-5,5-dimethyl-4-[(tetrahydrofuran-2-ylmethyl)amino]-5,7-dihydro-6H-pyrrolo[2,3-d]pyrimidin-6-one]
15 | 0.1 | 110 | CC1(C)C(=O)Nc2nc(-c3nn(Cc4ccccc4F)c4ncccc34)nc(N3CCOCC3)c21 [Example 72, 2-[1-(2-fluorobenzyl)-1H-pyrazolo[3,4-b]pyridin-3-yl]-5,5-dimethyl-4-(morpholin-4-yl)-5,7-dihydro-6H-pyrrolo[2,3-d]pyrimidin-6-one]
16 | 0.1 | 35 | CC1(C)CCN(c2nc(-c3nn(Cc4ccccc4F)c4ncccc34)nc3c2C(C)(C)C(=O)N3)CC1 [Example 68, 4-(4,4-dimethylpiperidin-1-yl)-2-[1-(2-fluorobenzyl)-1H-pyrazolo[3,4-b]pyridin-3-yl]-5,5-dimethyl-5,7-dihydro-6H-pyrrolo[2,3-d]pyrimidin-6-one]

Source: patent US8859569B2, “Substituted annellated pyrimidines and use thereof” (Bayer Pharma Aktiengesellschaft, priority 2011, dated 2014)
